Laboratory results reported in ChEMBL document CHEMBL1201862, “PubChem BioAssay data set” (2004).
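Growth conditions: 96-well plates. Treatment: test compound, 48 hours, 5 concentrations. Analysis: linear interpolation between bracketing concentrations; unreached endpoints set to highest concentration. GI50 marks 50% less growth.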 The source made the active and inactive calls. Cut-off read from the data, not from the text of the source: active = GI50 up to about 1.1 µM and inactive = higher.

Columns and labels:
Test in all cases: NCI anticancer screen, dose series, 48 h
MOLT-4 = test system: MOLT-4
HOP-92 = test system: HOP-92
IGROV-1 = test system: IGROV-1
SF-539 = test system: SF-539
EKVX = test system: EKVX
SR = test system: SR
SF-295 = test system: SF-295
SK-OV-3 = test system: SK-OV-3
HL-60 = test system: HL-60
UACC-62 = test system: UACC-62
LOX IMVI = test system: LOX IMVI
CAKI-1 = test system: CAKI-1
NCI-H460 = test system: NCI-H460
Malme-3M = test system: Malme-3M
A498 = test system: A498
SN12C = test system: SN12C
HT-29 = test system: HT-29
SK-MEL-2 = test system: SK-MEL-2
KM-20L2 = test system: KM-20L2
MDA-MB-231 = test system: MDA-MB-231

Measured: GI50

O=C1Cc2ccccc2CCc2ccccc21
inactive: MOLT-4 > 100 µM | HOP-92 35.6 µM | IGROV-1 > 100 µM | SF-539 > 100 µM | EKVX 79.6 µM | SR > 100 µM | SF-295 83 µM | SK-OV-3 > 100 µM | HL-60 > 100 µM | UACC-62 > 100 µM | LOX IMVI > 100 µM | CAKI-1 > 100 µM | NCI-H460 > 100 µM | Malme-3M 44.7 µM | A498 > 100 µM | SN12C > 100 µM | HT-29 > 100 µM | SK-MEL-2 64.1 µM | KM-20L2 > 100 µM

O=[N+]([O-])c1ccc(-c2ccc(C3=Nn4c(nnc4-c4ccc(Cl)cc4)SC3)o2)cc1
inactive: MOLT-4 > 100 µM | HOP-92 38.5 µM | IGROV-1 56 µM | SF-539 > 100 µM | EKVX > 100 µM | SR > 100 µM | SF-295 26.5 µM | SK-OV-3 > 82.4 µM | HL-60 > 59 µM | UACC-62 > 100 µM | LOX IMVI > 100 µM | CAKI-1 > 100 µM | NCI-H460 > 73.3 µM | Malme-3M > 52.5 µM | A498 92.7 µM | SN12C 97.9 µM | HT-29 > 100 µM | SK-MEL-2 99.3 µM | KM-20L2 > 100 µM

NC(=O)CCC(NC(=O)Cc1ccccc1)C(=O)O (configuration not stated)
inactive: MOLT-4 > 2470 µM | HOP-92 1060 µM | IGROV-1 1610 µM | SF-539 1420 µM | EKVX > 2470 µM | SR > 2470 µM | SF-295 1740 µM | SK-OV-3 > 2470 µM | HL-60 > 2470 µM | UACC-62 > 2470 µM | CAKI-1 1280 µM | Malme-3M 1530 µM | A498 > 2470 µM | SN12C > 2470 µM | HT-29 > 2470 µM | SK-MEL-2 > 2470 µM | KM-20L2 > 2470 µM

C/C(CCc1ccccc1)=N\NC(N)=S
inactive: MOLT-4 72.8 µM | HOP-92 > 100 µM | IGROV-1 > 100 µM | SF-539 37.2 µM | EKVX 72.4 µM | SR 75.2 µM | SF-295 > 100 µM | SK-OV-3 > 100 µM | HL-60 > 100 µM | UACC-62 > 100 µM | LOX IMVI > 100 µM | CAKI-1 > 100 µM | NCI-H460 > 100 µM | Malme-3M > 100 µM | A498 > 100 µM | SN12C > 100 µM | HT-29 27.8 µM | SK-MEL-2 > 100 µM | KM-20L2 > 100 µM

Oc1ccc(-c2c3ccccc3c(-c3ccc(O)cc3)c3ccccc23)cc1
inactive: MOLT-4 > 100 µM | HOP-92 > 100 µM | IGROV-1 > 100 µM | SF-539 > 100 µM | EKVX > 100 µM | SR 64.3 µM | SF-295 84.1 µM | SK-OV-3 > 100 µM | HL-60 > 100 µM | UACC-62 41 µM | LOX IMVI 60.5 µM | CAKI-1 > 100 µM | NCI-H460 > 100 µM | Malme-3M > 100 µM | A498 > 100 µM | SN12C > 100 µM | HT-29 > 100 µM | SK-MEL-2 > 100 µM | KM-20L2 > 100 µM

CC(=O)CC(N)=O
inactive: MOLT-4 > 100 µM | HOP-92 > 100 µM | IGROV-1 > 100 µM | SF-539 > 100 µM | EKVX > 100 µM | SR > 100 µM | SF-295 > 100 µM | SK-OV-3 > 100 µM | HL-60 > 100 µM | UACC-62 > 100 µM | CAKI-1 > 100 µM | NCI-H460 > 100 µM | Malme-3M > 100 µM | A498 > 100 µM | SN12C > 100 µM | HT-29 > 100 µM | SK-MEL-2 > 100 µM | KM-20L2 > 100 µM

O=C(c1nc2ccccc2nc1O)C(O)c1ccccc1 (configuration not stated)
inactive: MOLT-4 64.9 µM | HOP-92 63.7 µM | IGROV-1 > 100 µM | SF-539 44.1 µM | EKVX 64.6 µM | SR 86.1 µM | SF-295 > 100 µM | SK-OV-3 > 100 µM | HL-60 61.7 µM | UACC-62 72.4 µM | LOX IMVI 39.5 µM | CAKI-1 > 100 µM | NCI-H460 > 100 µM | Malme-3M > 100 µM | A498 39.5 µM | SN12C > 100 µM | HT-29 > 100 µM | SK-MEL-2 > 100 µM | KM-20L2 46.5 µM

CCOC(=O)CSc1nnc(C(Sc2nc(-c3ccccc3)c(-c3ccccc3)[nH]2)C(C)C)n1-c1ccccc1 (configuration not stated)
inactive: MOLT-4 17.1 µM | MDA-MB-231 24.4 µM | HOP-92 > 10 µM | IGROV-1 > 10 µM | SF-539 13 µM | EKVX 21.2 µM | SR 31.2 µM | SF-295 > 10 µM | SK-OV-3 > 10 µM | HL-60 20 µM | UACC-62 > 10 µM | LOX IMVI 13.7 µM | NCI-H460 17.5 µM | Malme-3M 17.5 µM | A498 > 10 µM | SN12C 15.9 µM | HT-29 14 µM | SK-MEL-2 16.1 µM | KM-20L2 > 10 µM

CC(C)CN1CC(C)C(=O)NC1=O (configuration not stated)
inactive: MOLT-4 > 100 µM | HOP-92 > 100 µM | SF-539 > 100 µM | EKVX > 100 µM | SR > 100 µM | SF-295 > 100 µM | SK-OV-3 > 100 µM | HL-60 > 100 µM | UACC-62 > 100 µM | LOX IMVI > 100 µM | CAKI-1 > 100 µM | NCI-H460 > 100 µM | Malme-3M > 100 µM | A498 > 100 µM | SN12C > 100 µM | HT-29 > 100 µM | SK-MEL-2 > 100 µM | KM-20L2 > 100 µM

COc1c(CC(C)=O)c2ccccc2n1C(C)=O
inactive: MOLT-4 > 100 µM | HOP-92 > 100 µM | IGROV-1 > 100 µM | SF-539 > 100 µM | EKVX > 100 µM | SR > 100 µM | SF-295 > 100 µM | SK-OV-3 > 100 µM | HL-60 > 100 µM | UACC-62 > 100 µM | CAKI-1 > 100 µM | NCI-H460 > 100 µM | A498 > 100 µM | SN12C > 100 µM | HT-29 > 100 µM | SK-MEL-2 > 100 µM | KM-20L2 > 100 µM

Cc1ccc(NC(=O)CC2C(=O)Nc3ccccc3S2(=O)=O)c(C)c1 (configuration not stated)
inactive: MOLT-4 7.33 µM | HOP-92 15 µM | IGROV-1 12.4 µM | SF-539 15.5 µM | EKVX 42.5 µM | SR 1.8 µM | SF-295 25.5 µM | HL-60 2.77 µM | UACC-62 7.26 µM | LOX IMVI 15 µM | CAKI-1 8.79 µM | NCI-H460 16 µM | Malme-3M 12.9 µM | A498 14.8 µM | SN12C 18.6 µM | HT-29 13.5 µM | SK-MEL-2 29 µM | KM-20L2 13.8 µM
